In PubChem BioAssay (NCI):
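Cultured in 96-well plates, cells were exposed to test compound for 48 hours across five concentrations. GI50: concentration for 50% inhibition of growth. The concentration for full growth arrest is given as TGI.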

Columns and labels:
Test in all cases: DTP human tumour cell line panel, 48 h
[1] = system: A498 renal
[2] = system: DU-145 prostate
[3] = system: HCT-116 colon
[4] = system: K-562 leukemia
[5] = system: KM12 colon
[6] = system: OVCAR-8 ovarian
[7] = system: SF-539 CNS
[8] = system: SNB-75 CNS
[9] = system: SW-620 colon
[10] = system: SK-MEL-2 melanoma

## COC(=O)c1ccc(/C=C2\CCc3ccccc3C2=O)cc1
[1]
  TGI: > 100 µM
[2]
  TGI: > 100 µM
[3]
  TGI: > 100 µM
[4]
  TGI: > 100 µM
[5]
  TGI: > 100 µM
[6]
  TGI: > 100 µM
[7]
  TGI: > 100 µM
[8]
  TGI: > 100 µM
[9]
  TGI: > 100 µM

## CC12CC(C/C1=N/O)C(C)(C)C2 (stereo not given)
[1]
  TGI: > 100 µM
[2]
  TGI: > 100 µM
[3]
  TGI: > 100 µM
[4]
  TGI: > 100 µM
[5]
  TGI: > 100 µM
[6]
  TGI: > 100 µM
[7]
  TGI: > 100 µM
[8]
  TGI: > 100 µM
[9]
  TGI: > 100 µM

## C=C[C@@](C)(/C=C/c1ccc(O)cc1)CCC=C(C)C
[1]
  TGI: 35.6 µM
[2]
  TGI: 26.1 µM
[3]
  TGI: 32.2 µM
[4]
  TGI: 29.9 µM
[6]
  TGI: 35.2 µM
[10]
  TGI: 37.3 µM
[8]
  TGI: 26.9 µM
[9]
  TGI: 34 µM

## [N-]=[N+]=C(C(=O)C(=[N+]=[N-])C(=O)c1ccccc1)C(=O)c1ccccc1
[2]
  TGI: > 100 µM
[3]
  TGI: > 100 µM
[4]
  TGI: > 100 µM
[5]
  TGI: > 100 µM
[6]
  TGI: > 100 µM
[7]
  TGI: > 100 µM
[10]
  TGI: > 100 µM
[8]
  TGI: > 100 µM
[9]
  TGI: > 100 µM

## COc1cccc(CN(C(=O)/C=C\Sc2ccccc2)C(C)(C)C)c1
[1]
  TGI: > 100 µM
[2]
  TGI: > 100 µM
[3]
  TGI: > 100 µM
[5]
  TGI: > 100 µM
[6]
  TGI: > 100 µM
[7]
  TGI: > 100 µM
[10]
  TGI: > 100 µM
[9]
  TGI: > 100 µM

## O=[N+]([O-])/C=C/c1cn(CCCCCn2cc(/C=C/[N+](=O)[O-])c3ccccc32)c2ccccc12
[1]
  TGI: 3.86 µM
[2]
  TGI: 7.25 µM
[3]
  TGI: 0.824 µM
[4]
  TGI: 3.7 µM
[5]
  TGI: 3.94 µM
[6]
  TGI: 16.5 µM
[7]
  TGI: 5.28 µM
[10]
  TGI: 38.1 µM
[9]
  TGI: 2.57 µM

## COC(=O)c1c(OC)cc2cc3c(c(O)c2c1C)C(=O)C1(O)C(=O)C=C(OC)C(OC(=O)CC(C)N)=C1C3=O (stereo not given)
[2]
  TGI: > 100 µM
[3]
  TGI: > 100 µM
[5]
  TGI: 42.7 µM
[6]
  TGI: 92.9 µM
[7]
  TGI: > 100 µM
[10]
  TGI: > 100 µM
[8]
  TGI: 18 µM
[9]
  TGI: > 100 µM

## CCCCCCOc1ccc(C(=N)N(CCCC)CCCC)c2ccccc12
[1]
  GI50: 1.19 µM
  TGI: 2.45 µM
[2]
  GI50: 1.49 µM
  TGI: 2.86 µM
[5]
  GI50: 1.61 µM
  TGI: 3.09 µM
[10]
  GI50: 1.72 µM
  TGI: 3.23 µM
[8]
  GI50: 1.19 µM
  TGI: 2.46 µM
[9]
  GI50: 1.52 µM
  TGI: 3 µM

## C=CCOC(=O)CCCCCCCCCCCCCCCOC(=O)C1=C(CCC[C@@H](C)O[Si](C)(C)C(C)(C)C)NC(=O)N2[C@H](CC3(CC/C=C\[C@H](CC)O[Si](C(C)C)(C(C)C)C(C)C)OCCO3)CC[C@H]12
[1]
  TGI: > 100 µM
[2]
  TGI: > 100 µM
[3]
  TGI: > 100 µM
[5]
  TGI: > 100 µM
[7]
  TGI: > 100 µM
[10]
  TGI: > 100 µM
[8]
  TGI: > 100 µM

## CC12CC(c3ccccc3O1)C(C(=O)Nc1cccc(F)c1)C(=O)N2 (stereo not given)
[1]
  TGI: > 100 µM
[2]
  TGI: > 100 µM
[3]
  TGI: > 100 µM
[4]
  TGI: > 100 µM
[5]
  TGI: > 100 µM
[6]
  TGI: 80.6 µM
[7]
  TGI: > 100 µM
[10]
  TGI: > 100 µM
[9]
  TGI: > 100 µM

## CNc1ccc(S(=O)Nc2ccccc2)cc1 (stereo not given)
[2]
  TGI: > 100 µM
[3]
  TGI: > 100 µM
[4]
  TGI: > 100 µM
[5]
  TGI: > 100 µM
[6]
  TGI: > 100 µM
[7]
  TGI: > 100 µM
[10]
  TGI: > 100 µM
[9]
  TGI: > 100 µM

## CC(C)(C)c1ccc(-c2nnc(-c3cc(C#N)cc(-c4nnc(-c5ccc(C(C)(C)C)cc5)o4)c3)o2)cc1
[1]
  TGI: > 100 µM
[2]
  TGI: > 100 µM
[3]
  TGI: > 100 µM
[4]
  TGI: > 100 µM
[5]
  TGI: > 100 µM
[6]
  TGI: > 100 µM
[10]
  TGI: > 100 µM
[8]
  TGI: > 100 µM
[9]
  TGI: > 100 µM
